Results on 27 compounds are retold here after patent US20150291514A1, “N-Aminosulfonyl Benzamides” (Pfizer Limited, priority 2012, published 2015).

Where a name gives a salt, the structure may show the parent alone.

T1 sequence (Q15858 whole entry): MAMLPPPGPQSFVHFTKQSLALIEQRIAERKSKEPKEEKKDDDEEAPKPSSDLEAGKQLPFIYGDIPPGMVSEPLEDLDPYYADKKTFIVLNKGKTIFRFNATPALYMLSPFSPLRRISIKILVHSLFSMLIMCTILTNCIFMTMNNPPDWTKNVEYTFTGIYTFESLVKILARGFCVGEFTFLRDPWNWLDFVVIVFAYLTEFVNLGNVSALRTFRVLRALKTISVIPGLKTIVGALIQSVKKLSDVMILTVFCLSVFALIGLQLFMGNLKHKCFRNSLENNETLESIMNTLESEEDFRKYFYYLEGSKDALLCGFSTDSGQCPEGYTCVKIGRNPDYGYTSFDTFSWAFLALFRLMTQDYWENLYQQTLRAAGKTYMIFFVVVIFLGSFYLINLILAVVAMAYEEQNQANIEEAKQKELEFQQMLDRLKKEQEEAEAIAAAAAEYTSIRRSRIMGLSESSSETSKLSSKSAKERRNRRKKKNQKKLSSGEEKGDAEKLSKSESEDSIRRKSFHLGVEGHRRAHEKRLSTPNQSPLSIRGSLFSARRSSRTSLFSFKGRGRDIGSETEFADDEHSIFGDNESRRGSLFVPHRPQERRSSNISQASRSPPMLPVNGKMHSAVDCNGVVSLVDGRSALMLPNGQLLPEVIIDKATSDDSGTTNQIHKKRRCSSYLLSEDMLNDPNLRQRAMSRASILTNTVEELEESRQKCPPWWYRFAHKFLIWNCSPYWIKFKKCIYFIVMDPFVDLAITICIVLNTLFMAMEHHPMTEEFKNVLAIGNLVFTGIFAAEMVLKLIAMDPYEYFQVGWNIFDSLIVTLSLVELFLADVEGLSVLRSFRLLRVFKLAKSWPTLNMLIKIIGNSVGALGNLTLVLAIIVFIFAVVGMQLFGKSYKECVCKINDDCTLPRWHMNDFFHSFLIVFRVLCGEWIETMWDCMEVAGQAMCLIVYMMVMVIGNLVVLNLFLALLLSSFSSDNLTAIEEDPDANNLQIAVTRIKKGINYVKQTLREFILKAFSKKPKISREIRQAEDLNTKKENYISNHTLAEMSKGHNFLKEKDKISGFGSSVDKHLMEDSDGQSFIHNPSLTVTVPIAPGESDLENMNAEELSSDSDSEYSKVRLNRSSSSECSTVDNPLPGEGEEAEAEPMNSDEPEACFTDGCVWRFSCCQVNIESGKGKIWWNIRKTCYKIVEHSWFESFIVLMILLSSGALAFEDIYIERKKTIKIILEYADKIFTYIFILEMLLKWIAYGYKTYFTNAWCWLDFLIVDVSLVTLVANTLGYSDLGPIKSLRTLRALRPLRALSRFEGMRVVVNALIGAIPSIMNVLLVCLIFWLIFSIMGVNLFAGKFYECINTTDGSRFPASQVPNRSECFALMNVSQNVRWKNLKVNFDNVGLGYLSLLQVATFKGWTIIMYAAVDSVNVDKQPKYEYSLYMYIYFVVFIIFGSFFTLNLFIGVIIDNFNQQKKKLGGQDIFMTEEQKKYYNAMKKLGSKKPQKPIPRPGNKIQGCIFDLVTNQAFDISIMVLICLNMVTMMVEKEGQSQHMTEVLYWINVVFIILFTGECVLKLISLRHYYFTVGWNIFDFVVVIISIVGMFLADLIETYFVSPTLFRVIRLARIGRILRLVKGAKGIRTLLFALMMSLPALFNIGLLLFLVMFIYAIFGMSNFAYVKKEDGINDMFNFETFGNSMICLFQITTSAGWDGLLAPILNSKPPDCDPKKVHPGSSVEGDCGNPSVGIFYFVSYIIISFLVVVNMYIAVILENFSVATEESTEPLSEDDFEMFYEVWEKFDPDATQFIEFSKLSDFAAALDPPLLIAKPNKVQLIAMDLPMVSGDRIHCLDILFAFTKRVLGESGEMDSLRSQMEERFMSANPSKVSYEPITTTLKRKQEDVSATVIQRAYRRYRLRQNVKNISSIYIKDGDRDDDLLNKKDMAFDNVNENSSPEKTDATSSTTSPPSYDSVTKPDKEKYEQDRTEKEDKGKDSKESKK

The experiment concerns the target T1, Nav1.7 (or SCN9A) channel (Homo sapiens, UniProt Q15858).
T1 construct: expressed in transfected cells
In words: Nav1.7 (hSCN9A) PatchXpress electrophysiology assay. The experiment is classed as cell-based. The settings on record: estimated IC50 from single point electrophysiology data; PatchXpress platform; HEK cells expressing hSCN9A, held at V1/2 of inactivation; read-out: Nav1.7 EIC50. The method, then: The ability of the compounds of formula (I) to block the Nav1.7 (or SCN9A) channel were measured using the assay described below.
Human Embryonic Kidney (HEK) cells were transfected with an hSCN9A construct using lipofectamine reagent (Invitrogen), using standard techniques. Cells stably expressing the hSCN9A constructs were identified by their resistance to G-418 (400 μg/ml). Clones were screened for expression using the whole-cell voltage-clamp technique.
HEK cells stably transfected with hSCN9A were maintained in DMEM medium supplemented with 10% heat-inactivated fetal bovine serum and 400 μg/ml G-418 in an incubator at 37° C. with a humidified atmosphere of 10% CO2. For HTS, cells were harvested from flasks by trypsinization and replated in an appropriate multi-well plate (typically 96 or 384 wells/plate) such that confluence would be achieved within 24 hours of plating. For electrophysiological studies, cells were removed from the culture flask by brief trypsinization and re-plated at low density onto glass cover slips. Cells were typically used for electrophysiological experiments within 24 to 72 hours after plating.
Cover slips containing HEK cells expressing hSCN9A were placed in a bath on the stage of an inverted microscope and perfused (approximately 1 ml/minutes) with extracellular solution of the following composition: 138 mM NaCl, 2 mM CaCl2, 5.4 mM KCl, 1mM MgCl2, 10 mM glucose, and 10 mM HEPES, pH 7.4, with NaOH. […] The osmolarity of the extracellular and intracellular solutions was 300 mOsm/kg and 295 mOsm/kg, respectively. All recordings were made at room temperature (22-24° C.) using AXOPATCH 200B amplifiers and PCLAMP software (Axon Instruments, Burlingame, Calif.).
hSCN9A currents in HEK cells were measured using the whole-cell configuration of the patch-clamp technique (Hamill et al., 1981). Uncompensated series resistance was typically 2 to 5 mega ohms and >85% series resistance compensation was routinely achieved. As a result, voltage errors were negligible and no correction was applied. Current records were acquired at 20 to 50 KHz and filtered at 5 to 10 KHz.
HEK cells stably transfected with hSCN9A were viewed under Hoffman contrast optics and placed in front of an array of flow pipes emitting either control or compound-containing extracellular solutions. All compounds were dissolved in dimethyl sulfoxide to make 10 mM stock solutions, which were then diluted into extracellular solution to attain the final concentrations desired. […] The voltage-dependence of inactivation was determined by applying a series of depolarizing prepulses (8 sec long in 10 mV increments) from a negative holding potential. The voltage was then immediately stepped to 0 mV to assess the magnitude of the sodium current. Currents elicited at 0 mV were plotted as a function of prepulse potential to allow estimation of the voltage at which 50% of the channels were inactivated (midpoint of inactivation or V1/2). Compounds were tested for their ability to inhibit hSCN9A sodium channels by activating the channel with a 20 msec voltage step to 0 mV following an 8 second conditioning prepulse to the empirically determined V1/2. Compound effect (% inhibition) was determined by difference in current amplitude before and after application of test compounds. For ease of comparison, “estimated IC-50” (EIC50) values were calculated from single point electrophysiology data by the following equation, (tested concentration, uM)×(100-% inhibition/% inhibition). Inhibition values <20% and >80% were excluded from the calculation.
Electrophysiological assays were conducted with PatchXpress 7000 hardware and associated software (Molecular Devices Corp). All assay buffers and solutions were identical to those used in conventional whole-cell voltage clamp experiments described above. hSCN9A cells were grown as above to 50%-80% confluency and harvested by trypsinization. […]
As for `CN(C)S(=O)(=O)NC(=O)c1ccc(Oc2ccc(Cl)c(C(F)(F)F)c2)cc1` [Example 1, 4-[4-Chloro-3-(trifluoromethyl)phenoxy]-N-[(dimethylamino)sulfonyl]benzamide diethylamine salt], the IC50 was 2600 nM.

Turning to `CC(C)COc1ncc(Oc2cc(F)c(C(=O)NS(=O)(=O)N(C)C)cc2F)cc1Cl` [Example 2, 4-[(5-Chloro-6-isobutoxvpvridin-3yl)oxy]-N-[(dimethylamino)sulfonyl]2,5-difluorobenzamide diethylamine salt], the IC50 was 130 nM.

Consider `CNS(=O)(=O)NC(=O)c1ccc(Oc2ccc(Cl)c(C(F)(F)F)c2)cc1` [Example 3, 4-[4-chloro-3-(trifluoromethyl)phenoxy]-N-[(methylamino)sulfonyl]benzamide diethylamine salt], for which the IC50 was 4800 nM.

As for `COc1cc(Cl)ccc1Oc1ccc(C(=O)NS(N)(=O)=O)cc1` [Example 4, N-(aminosulfonyl)-4-(4-chloro-2-methoxyphenoxy)benzamide], the IC50 was > 3000 nM.

Regarding `COc1cc(Cl)ccc1Oc1ccc(C(=O)NS(=O)(=O)N(C)C)cc1` [Example 5, 4-(4-chloro-2-methoxyphenoxy)-N-[(dimethylamino)sulfonyl]benzamide], the IC50 was 7100 nM.

For the compound `COc1cc(Cl)ccc1Oc1cc(F)c(C(=O)NS(N)(=O)=O)cc1F` [Example 6, N-(aminosulfonyl)-4-(4-chloro-2-methoxvphenoxy)-2,5-difluorobenzamide], the IC50 was 7300 nM.

With `COc1cc(Cl)ccc1Oc1cc(F)c(C(=O)NS(=O)(=O)N(C)C)cc1F` [Example 7, 4-(4-chloro-2-methoxvphenoxy)-N-[(dimethylamino)sulfonyl]-2,5-difluorobenzamide], the IC50 was > 3000 nM.

Regarding `COc1ccccc1Oc1ccc(C(=O)NS(=O)(=O)N(C)C)cc1` [Example 8, N-[(dimethylamino)sulfonyl]-4-(2-methoxyphenoxy)benzamide diethylamine salt], the IC50 is > 30000 nM.

Take `COc1cccc(Oc2ccc(C(=O)NS(=O)(=O)N(C)C)cc2)c1` [Example 9, N-[(dimethylamino)sulfonyl[-4-(3-methoxyphenoxy)benzamidediethylamine salt]: the IC50 was > 30000 nM.

In the case of `CC(C)COc1ncc(Oc2ccc(C(=O)NS(N)(=O)=O)cc2)cc1Cl` [Example 10, N-(aminosulfonyl)-4-[(5-chloro-6-isobutoxypyridin-3-yl)oxy]benzamide diethylamine salt], the IC50 is 6300 nM.

For `CC(C)COc1ncc(Oc2ccc(C(=O)NS(=O)(=O)N(C)C)cc2)cc1Cl` [Example 11, 4-[(5-chloro-6-isobutoxypyridin-3-yl)oxy]-N-[(dimethylamino)sulfonyl]benzamide diethylamine salt], the IC50 is 2100 nM.

As to `COc1ccccc1Oc1cc(F)c(C(=O)NS(=O)(=O)N(C)C)cc1Cl` [Example 12, 5-chloro-N-[(dimethylamino)sulfonyl]-2-fluoro-4-(2-methoxyphenoxy)benzamide diethylamine salt], the IC50 is > 1000 nM.

In the case of `COc1ccccc1Oc1cc(F)c(C(=O)NS(=O)(=O)N(C)C)cc1F` [Example 13, N-[(dimethylamino)sulfonyl]-2,5-difluoro-4-(2-methoxyphenoxy)benzamide], the IC50 is > 1000 nM.

As for `COc1cccc(Oc2cc(F)c(C(=O)NS(=O)(=O)N(C)C)cc2F)c1` [Example 14, N-[(dimethylamino)sulfonyl]-2,5-difluoro-4-(3-methoxyphenoxy)benzamide diethylamine salt], the IC50 was 7500 nM.

With `NS(=O)(=O)NC(=O)c1ccc(Oc2ccc(Cl)cc2-c2ccnnc2)cc1` [Example 15, N-(aminosulfonyl)-4-(4-chloro-2-pyridazin-4-ylphenoxy)benzamide], the IC50 is > 3000 nM.

As for `CN(C)S(=O)(=O)NC(=O)c1ccc(Oc2ccc(Cl)cc2-c2ccnnc2)cc1` [Example 16, 4-(4-chloro-2-pyridazin-4-ylphenoxy)-N-[(dimethylamino)sulfonyl]benzamide], the IC50 is 4900 nM.

Consider `[2H]C([2H])([2H])C([2H])(Oc1ncc(Oc2cc(F)c(C(=O)NS(=O)(=O)N(C)C)cc2F)cc1Cl)C([2H])([2H])[2H]` [Example 17, 4-[(5-chloro-6-isopropoxypyridin-3-yl)oxy]-N-[(dimethylamino)sulfonyl]-2,5-difluorobenzamide-d7], for which the IC50 was 200 nM.

In the case of `N#Cc1cc(C(=O)NS(N)(=O)=O)ccc1Oc1ccccc1-c1ccccc1` [Example 18, N-(aminosulfonyl)-4-(biphenyl-2-yloxy)-3-cyanobenzamide diethylamine salt], the IC50 is 34000 nM.

`CCNS(=O)(=O)NC(=O)c1ccc(Oc2ccccc2-c2ccccc2)c(C#N)c1` [Example 19, 4-(biphenyl-2-yloxy)-3-cyano-N-[(ethylamino)sulfonyl]benzamide diethylamine salt]: the IC50 was 10000 nM.

On to `CN(C)S(=O)(=O)NC(=O)c1cc(F)c(Oc2cnc(N3CCC(F)C3)c(Cl)c2)cc1F` (stereo not drawn) [Example 20, 4-{[5-chloro-6-(3-fluoropyrrolidin-1-yl)pyridine-3-yl]oxy}-N-[(dimethylamino)sulfonyl]-2,5-difluorobenzamide formate salt], for which the IC50 is 1200 nM.

Consider `CN(C)S(=O)(=O)NC(=O)c1cc(F)c(Oc2cnc(NCC3CC3)c(Cl)c2)cc1F` [Example 21, 4-({5-chloro-6-[(cyclopropylmethyl)amino]pyridine-3-yl}oxy)-N-[(dimethylamino)sulfonyl]-2,5-difluorobenzamide formate salt], for which the IC50 was 600 nM.

Take `CN(C)c1ncc(Oc2cc(F)c(C(=O)NS(=O)(=O)N(C)C)cc2F)cc1Cl` [Example 22, 4-{[5-chloro-6-(dimethylamino)pyridine-3-yl]oxy}-N-[(dimethylamino)sulfonyl]-2,5-difluorobenzamide formate salt]: the IC50 was 2500 nM.

Take `CN(CC1CC1)c1ncc(Oc2cc(F)c(C(=O)NS(=O)(=O)N(C)C)cc2F)cc1Cl` [Example 23, 4-({5-chloro-6-[(cyclopropylmethyl)(methyl)amino]pyridine-3-yl}oxy)-N-[(dimethylamino)sulfonyl]-2,5-difluorobenzamide formate salt]: the IC50 is 670 nM.

As for `CC(C)N(C)c1ncc(Oc2cc(F)c(C(=O)NS(=O)(=O)N(C)C)cc2F)cc1Cl` [Example 24, 4-({5-chloro-6-[isopropyl(methyl)amino]pyridine-3-yl}oxy)-N-[(dimethylamino)sulfonyl]-2,5-difluorobenzamide formate salt], the IC50 was 660 nM.

Regarding `CNc1ncc(Oc2cc(F)c(C(=O)NS(=O)(=O)N(C)C)cc2F)cc1Cl` [Example 25, 4-{[5-chloro-6-(methylamino)pyridine-3-yl]oxy}-N-[(dimethylamino)sulfonyl]-2,5-difluorobenzamide formate salt], the IC50 is 9800 nM.

For `CN(C)S(=O)(=O)NC(=O)c1cc(F)c(Oc2cnc(N3CCCC3)c(Cl)c2)cc1F` [Example 26, 4-[(5-chloro-6-pyrrolidin-1-ylpyridin-3-yl)oxy]-N-[(dimethylamino)sulfonyl]-2,5-difluorobenzamide formate salt], the IC50 was 480 nM.

With `CN(C)S(=O)(=O)NC(=O)c1cc(F)c(Oc2cnc(NC34CC(C3)C4)c(Cl)c2)cc1F` [Example 28, 4-{[6-(pyridin[1.1.1]pent-1-ylamino)-5-chloropyridin-3-yl]oxy}-N-[(dimethylamino)sulfonyl]-2,5-difluorobenzamide formate salt], the IC50 was 160 nM.
